Drawing on PubChem BioAssay (NCI), this text covers GI50 and TGI for 13 molecules.

Experiment in all cases: NCI-60 cell line screen, 48 h
Assay [1] concerns EKVX NSCLC.
Assay [2] concerns MOLT-4 leukemia.
Assay [3] has as its system OVCAR-3 ovarian.
For assay [4], the system named is OVCAR-8 ovarian.
In assay [5] the test system is RXF 393 renal.
The subject of assay [6] is SF-268 CNS.
Assay [7] concerns SF-539 CNS.
Assay [8] has as its system SK-MEL-28 melanoma.
The subject of assay [9] is SK-MEL-5 melanoma.
Assay [10] relates to UACC-62 melanoma.

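Results reflect a 48-hour exposure of cells in 96-well plates to compound at five concentrations. GI50: concentration for 50% inhibition of growth. At the TGI there is no net growth.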

Take `CC1COCCN1CC#CCOC(=O)c1cc2ccccc2oc1=O` (stereo not given): the GI50 in [1], in assay [2], in [3], in [4], in assay [5] and in [6] was more than 100 µM throughout. Besides, the GI50 in assay [7], in [8], in [9] and in [10] was more than 100 µM throughout. For the same molecule, the TGI in assay [1], in assay [2], in assay [3], in assay [4], in assay [5] and in assay [6] was more than 100 µM in each case. In addition, the TGI in assay [7], in assay [8], in assay [9] and in assay [10] was more than 100 µM in each case.
Turning to `C[C@H](c1ccccc1)N(CCC(=O)O)C(=O)CCN(C(=O)CCN(C(=O)CCN[C@H](C)c1ccccc1)[C@H](C)c1ccccc1)[C@H](C)c1ccccc1`, the GI50 in [1], in assay [2], in assay [3], in assay [4], in [5] and in assay [6] was more than 100 µM throughout. In addition, the GI50 in assay [7], in assay [8], in assay [9] and in assay [10] was more than 100 µM each time. Moreover, the TGI in assay [1], in assay [2], in [3], in assay [4], in [5] and in [6] was more than 100 µM throughout. The TGI in [7], in [8], in [9] and in [10] was more than 100 µM throughout.
As to `CC1CC(c2ccc(Cl)c(Cl)c2)=Nc2ccccc2S1` (stereo not given), the TGI in assay [1], in assay [2], in assay [3], in assay [4], in assay [5] and in assay [6] was more than 100 µM in each case. Further, the TGI in [7], in assay [8], in assay [9] and in [10] was more than 100 µM in each case.
`Cc1ccc(S(=O)(=O)CC2(Br)CCc3ccccc3C2=O)cc1` (stereo not given): the TGI is more than 100 µM in assay [1]; more than 100 µM in assay [2]; more than 100 µM in assay [3]; 64.8 µM in assay [4]; 39 µM in assay [5]; 36.5 µM in assay [6]. The TGI in assay [7] is more than 100 µM; in assay [8] it was 38.5 µM; in assay [9], 38.4 µM; in assay [10], 67.9 µM.
As for `COc1ccc2nc3cc(Cl)ccc3c(Nc3cc(C(C)C)c(O)cc3C)c2c1`, the GI50 in assay [1] is 2.22 µM; in assay [2], 1.38 µM; in assay [3], 1.69 µM; in assay [4] it was 2.06 µM; in assay [5], 1.28 µM; in assay [6], 2.35 µM. The GI50 was 1.81 µM in assay [7], 1.91 µM in [8], 1.61 µM in assay [9] and 1.72 µM in assay [10]. Moreover, the TGI in assay [1] stood at 7.75 µM; in [2], 4.36 µM; in assay [3] it was 3.26 µM; in assay [4] it was 4.47 µM; in assay [5], 2.9 µM; in [6] it was 6.86 µM. In addition, the TGI in [7] came to 3.61 µM; in assay [8], 4.05 µM; in assay [9], 3.1 µM; in assay [10], 3.5 µM.
For the molecule `CN1CCN(c2ccc(Nc3ncc4cc5n(c4n3)C3(CCCCC3)CNC5=O)nc2)CC1`, the GI50 in assay [1] was 2.14 µM; in [2] it was 0.279 µM; in assay [3] it was 3.16 µM; in [4], 4.11 µM; in assay [5] it was 1.32 µM; in [6], 1.46 µM. Further, the GI50 in assay [7] is 2.29 µM; in assay [8] it was 3.01 µM; in assay [9], 3.2 µM; in assay [10], 2.94 µM. Moreover, the TGI in assay [1] stood at 14.1 µM; in assay [2] it was 3.58 µM; in [3], 13.1 µM; in [4], 86.1 µM; in assay [5], 3.71 µM; in assay [6] it was 4.94 µM. The TGI in assay [7] was 6.72 µM; in assay [8], 26 µM; in [9], 15.6 µM; in [10], 19.8 µM.
In the case of `O=C(/C=C/c1ccccc1)OCC1=C[C@@H](O)[C@@H]2C=CO[C@@H](OC3OC(CO)C(O)C(O)C3O)[C@H]12` (stereo not given in full), the TGI in assay [1], in [2], in assay [3], in assay [4], in [5] and in assay [6] was more than 100 µM in each case. For the same molecule, the TGI in assay [7], in assay [8], in assay [9] and in [10] was more than 100 µM throughout.
As to `c1cc2c(c(NC3=NCCN3)c1)CCCC2`, the TGI in assay [1], in [2], in assay [3], in assay [4], in assay [5] and in [6] was more than 100 µM throughout. The TGI in assay [7], in assay [8], in assay [9] and in [10] was more than 100 µM in each case.
As for `COc1cc(-c2nn(-c3cccc(NC(=O)CCN4CCN(C)CC4)c3)cc2-c2ccncc2)ccc1Cl`, the GI50 in assay [1] was 2.13 µM; in assay [2] it was 1.44 µM; in assay [3], 0.363 µM; in assay [4] it was 2.77 µM; in assay [5], 1.09 µM; in [6], 1.43 µM. In addition, the GI50 in assay [7] is 1.55 µM; in assay [8], 1.48 µM; in assay [9] it was 0.529 µM; in assay [10], 1.04 µM. Besides, the TGI in assay [1] stood at 12.6 µM; in assay [2] it was 4.89 µM; in [3], 1.75 µM; in [4], 12 µM; in assay [5], 2.77 µM; in [6], 3.53 µM. Further, the TGI in assay [7] was found to be 3.06 µM; in [8] it was 2.99 µM; in assay [9], 1.86 µM; in [10], 2.66 µM.
Take `O=c1c2cc(O)c(O)cc2oc2cc(O)c(C3OC(CO)C(O)C(O)C3O)c(O)c12` (stereo not given): the TGI in [1], in [2], in assay [3], in assay [4], in [5] and in [6] was more than 100 µM throughout. Further, the TGI in assay [7], in [8], in [9] and in [10] was more than 100 µM throughout.
On to `COC1=CC2CCN3Cc4cc5c(cc4C(C1O)C23)OCC5` (stereo not given), for which the GI50 in assay [1] is 4.66 µM; in assay [2], 2.11 µM; in assay [3], 1.78 µM; in [4] it was 3.75 µM; in [5], 2.74 µM; in assay [6] it was 4.57 µM. Further, the GI50 in [7] is 3.95 µM; in assay [8] it was 3.46 µM; in assay [9], 2.18 µM; in [10], 2.05 µM. The TGI in assay [1] is 32.6 µM; in [2], more than 100 µM; in assay [3], 5.62 µM; in [4] it was 37.3 µM; in [5], 16.7 µM; in assay [6] it was more than 100 µM. Further, the TGI in [7] was 21.3 µM; in [8], more than 24.2 µM; in [9], 8.89 µM; in assay [10], 11.1 µM.
On to `COc1cc(NC(=O)c2ccccc2Nc2ccnc(C(F)(F)F)c2)cc(OC)c1OC`, for which the GI50 in assay [1] is 48.3 µM; in [2], 36.9 µM; in assay [3], 22.4 µM; in [4], 69.6 µM; in assay [5], more than 100 µM; in [6] it was more than 100 µM. The GI50 in [7] was more than 100 µM; in [8], more than 100 µM; in assay [9], 25.4 µM; in assay [10], 36.8 µM. For the same molecule, the TGI in assay [1], in assay [2], in assay [3], in assay [4], in assay [5] and in assay [6] was more than 100 µM throughout. In addition, the TGI in assay [7], in assay [8], in [9] and in assay [10] was more than 100 µM in each case.
With `Cc1cn2c(/C=C3/C(=O)Nc4ccc(Cl)cc43)c(C)nc2s1`, the GI50 in assay [1] is 12.5 µM; in assay [2], 0.0776 µM; in assay [3] it was 0.564 µM; in assay [4] it was 2.75 µM; in assay [5], 6.74 µM; in [6], 12.5 µM. The GI50 in assay [7] was 0.124 µM; in [8], 17 µM; in assay [9], 0.125 µM; in assay [10] it was 0.0411 µM. For the same molecule, the TGI in [1] was more than 100 µM; in assay [2] it was more than 100 µM; in [3], 5.28 µM; in assay [4] it was 32.7 µM; in [5], more than 100 µM; in assay [6] it was more than 100 µM. In addition, the TGI in [7] was 0.692 µM; in assay [8], more than 54.7 µM; in assay [9], 14.4 µM; in assay [10], 54.7 µM.
